# According to patent US20240082342A1, “PEPTIDE THERAPEUTICS FOR INCREASING LUNG CELL VIABILITY” (BOARD OF REGENTS, THE UNIVERSITY OF TEXAS SYSTEM, priority 2018, published 2024):
# Entries after “also recorded” stand apart in the source; their conditions may differ.
# Key:
# [1] = system: A2ECs treated with IL-17A; assay: A2ECs exposed to IL-17A in vitro; format: cell-based, mouse; conditions: for IL-17A-induced p53 and PAI-1 expression, and apoptosis: A2ECs from WT mice, IL-17A 100 ng/ml
# Procedure: FIGS. 49A-49B show the role of IL-17A in PTS-induced p53, PAI-1 expression, and apoptosis in A2ECs. (A) IL-17A^−/− mice resist PTS-induced p53 expression and apoptosis in A2ECs. Mice were kept in ambient AIR or exposed to 20 weeks of PTS. A2ECs isolated from WT and IL-17A^−/− mice in AIR or exposed to PTS were analyzed for acetylated/total p53, Sirt1 and activated caspase-3 to assess apoptosis by Western blotting. (B) CSP inhibits IL-17A-induced p53 and PAI-1 expression and apoptosis in A2ECs in vitro. A2ECs isolated from WT mice were treated with PBS or IL-17A (100 ng/ml) in the presence or absence of CSP or control peptide, CP for 24 h in culture dishes. A2EC lysates were immunoblotted for p53, PAI-1, Cl./total caspase-3 and β-actin. WT mice exposed to IL-17A (FIG. 48D) and PTS (FIG. 46A) induce p53 acetylation and Cav1 expression, while inhibiting Sirt1 in A2ECs.
# FIGS. 58A-58B show a 7-amino acid fragment of CSP, CSP7 Inhibits IL-17A-induced A2EC apoptosis. (A) Fragments of CSP were synthesized as shown. (B) A2ECs were treated with CSP or its fragments, or CP, 2 h after exposure of cells to IL-17A. A2EC lysates were immunoblotted for acetylated/total p53 and active/total caspase-3 24 h after IL-17A exposure. β-actin levels were evaluated to assess equal loading.
# Increased p53 and apoptosis in A2ECs of mice exposed to PTS or IL-17A provided evidence that PTS acts by increasing IL-17A. To confirm that increased IL-17A contributes to the induction of p53 and PAI-1 expression, and apoptosis in A2ECs during PTS-induced lung injury, IL-17A-deficient mice were exposed to 20 weeks of PTS and control mice were kept in ambient air. A2ECs were tested for p53^AC, p53 and Sirt1 expression, and apoptosis. The responses were compared with changes in A2ECs isolated from WT mice exposed to 20 weeks of PTS or AIR. There was marked induction of p53^AC and p53 levels, and apoptosis with parallel suppression of Sirt1 expression in WT mice exposed to 20 weeks of PTS. […] To confirm mitigation of PTS induced lung injury by CSP or CSP7 involves suppression of IL-17A-induced p53, PAI-1 and apoptosis, A2ECs isolated from WT mice were next treated with IL-17A (100 ng/ml) with or without CSP, CSP7 or CP. Control cells were treated with vehicle (PBS) alone. The A2EC lysates were tested for p53 and p53-mediated downstream induction of PAI-1, and apoptosis. […] Further, induction of miR-34a increased p53 and apoptosis in A2ECs without exposure to tobacco smoke, while inhibition of miR-34a using miR-34a antisense (miR-34a-AS) reduced cigarette smoke induced p53 expression and apoptosis. Results of both in vitro and in vivo experiments support an intricate link between miR-34a, p53^AC, p53 and p53-mediated induction of PAI-1 expression, and A2EC apoptosis during PTS lung injury.
# [2] = system: A2Cs of miR-34a^fl/fl and miR-34a^cKO mice; assay: Tobacco smoke exposure of miR-34a fl/fl and miR-34a cKO mice; format: in vivo, mouse; conditions: for telomere shortening (qPCR): 20 weeks TS; for telomerase enzyme activity: TS
# Procedure: To analyze the effect of cigarette smoke, mice were exposed to passive smoke from 40 research cigarettes over a 2-hour period once (2 h) or twice (4 h) daily for 5 days/week for 20 weeks (˜90 mg/m^3 total solid particulates) using a mechanical smoking chamber (Teague Enterprises, Davis, CA). Control mice were exposed to ambient air. At the 18th week, peptide treatment at a dosage of 30 μg/20 g body weight was initiated and continued on a daily basis for the next 14 days. At the end of the experiment, the mice were euthanized and used for the experiments.
# To test the effect of chronic TS exposure induced lung injury, these mice were exposed to passive TS from 40 research cigarettes over a 4 h period 5 days/week for 20 weeks (˜90 mg/m3 total solid particulates) using a mechanical smoking chamber (Teague Enterprises, Davis, CA) as described earlier. (Bhandary et al, 2015). Control mice were kept in ambient air. After sixteen weeks of daily passive TS exposure, mice with TS exposure injury were treated with CSP7 at a dosage of 1.5 mg/kg body weight daily 5 days/week for the next four weeks. These mice were continued with daily exposure of 4 h of TS during CSP7 treatment. At the end of the experiment (after 20 weeks of TS exposure), the mice were euthanized, and lungs were utilized for further analyses. To expand the local delivery options of CSP7 to directly treat the damaged lung by air-jet milling for dry powder inhalation (DPI). Mice exposed to TSE were treated with CSP7 using a rotating brush generator for 15 min daily for 7 days. Fourteen days later, BLM mice were subjected to daily inhalation of micronized CSP7 (0.05 mg/kg/d) DP through air-jet-milling for seven consecutive days using a rotating brush exposure system. The rotating brush exposure system gave a consistent minimal chamber concentration of 0.1 mg/L. In order to match dosing of DP inhalation, animal exposure times were adjusted to approximately 15 minutes and an estimated dose of 0.05 mg/kg/d or 1.00 microgram/lung was administered.
# Inducible conditional knockout (miR-34a^cKO) mice lacking miR-34a expression in A2ECs were generated by crossing miR-34a^fl/fl mice with SP-C^Cre/mTmG mice (FIG. 62A). RNA from A2ECs of miR-34a^fl/fl or miR-34a^cKO mice treated with tamoxifen were analyzed for miR-34a. […] After 20 weeks, A2ECs were isolated from these mice and analyzed for changes in miR-34a. […] A2ECs from miR-34a^fl/fl and miR-34a^cKo mice were next isolated and tested the lysates for changes in p53 and PAI-1 expression, and apoptosis. PTS induced p53 and PAI-1 expression in A2ECs of miR-34a^fl/fl mice. These changes were associated increased of A2EC apoptosis and senescence. […] These mice also resisted A2ECs apoptosis or senescence (FIG. 62C).
# WT mice with CS-LI = assay: Chronic CS/TSE lung injury in WT mice treated by nebulization or IP injection; format: in vivo, mouse
substance,measurement,setting,value
"DGIWKASFTTFTVTKYWFYR (listed as Homo sapiens) [CSP, 20 residue caveolin-1 scaffolding domain peptide]","IL-17A-induced p53 and PAI-1 expression, and apoptosis",[1],"inhibited IL-17A-induced p53 and PAI-1 expression, and apoptosis"
"FTTFTVT (listed as Homo sapiens) [CSP7, heptapeptide fragment of the caveolin-1 scaffolding domain peptide CSP]",miR-34a expression in A2ECs (qRT-PCR),"[2]; WT or miR-34a^fl/fl mice, 20 weeks PTS",reduced miR-34a expression
same,telomere shortening (qPCR),[2]; WT or miR-34a^fl/fl mice,protected from telomere shortening; also recorded: significant protection against TS-induced telomere shortening
same,miR-34a expression in A2ECs,"[2]; miR-34a^cKO mice, 20 weeks PTS",minimal effect
same,telomere shortening (qPCR),[2]; miR-34a^cKO mice,minimal effect
same,telomerase enzyme activity,[2]; miR-34a^cKO mice,did not upregulate telomerase activity; also recorded: limited effects on baseline telomerase activity
same,"p53, PAI-1, A2EC apoptosis and senescence","[2]; miR-34a^fl/fl mice, PTS","inhibited p53, PAI-1 and A2EC apoptosis and senescence"
same,telomerase enzyme activity,[2]; miR-34a^fl/fl mice,significant upregulation; also recorded: reversed
same,p53 and caspase-3 activation,"[1]; A2ECs + IL-17A, CSP deletion fragments",inhibited p53 and caspase-3 activation
same,"IL-17A-induced p53 and PAI-1 expression, and apoptosis",[1],"inhibited IL-17A-induced p53 and PAI-1 expression, and apoptosis"
same,Ac-Tub staining in tracheal sections,WT mice with CS-LI; 20 weeks TSE/CS,reversed in CSP7 treated WT mice; also recorded: improved
same,PAI-1 expression in AT2 cells,WT mice with CS-LI; CS-LI WT mice,reduced
same,"total, acetylated, serine phosphorylated p53, cleaved caspase-3, β-galactosidase in AT2 cells","WT mice with CS-LI; CS-LI WT mice, IP",markedly suppressed
same,MUC5AC and HDAC6 mRNA in TECs,WT mice with CS-LI; CS-LI mice,significantly reduced
same,"MUC5AC, HDAC6, FOXA3, CAV1 and FOXA2 mRNA in lung",WT mice with CS-LI; CS-LI mice,"significant reduction in MUC5AC, HDAC6, FOXA3, and CAV1 mRNA"
same,PP2A and CIP2A mRNA in lung,WT mice with CS-LI; CS-LI mice,reversed
same,macrophages in bronchoalveolar lavage,WT mice with CS-LI; CS-LI mice,significantly reduced
same,number of ciliated (Ac-Tub positive) tracheal epithelial cells,WT mice with CS-LI; MTEC/TECs isolated from treated mice,reversal; also recorded: significantly reversed; also recorded: increased the number of ciliated TECs
same,H&E alveolar damage / mean linear intercept (MLI),WT mice with CS-LI; Neb and IP,reversed; also recorded: significantly (P<0.0001) reduced
same,"IHC Ac-Tubulin, LC3 (and CAV1) in lung sections",WT mice with CS-LI; Neb and IP,reversed in CSP7 (Neb and IP) treated WT mice
same,IHC Cav1 expression in lung sections,WT mice with CS-LI; Neb and IP,overcome
same,IHC MUC5AC and HDAC6 staining in lung sections,WT mice with CS-LI; Neb or IP,reversed; also recorded: remarkably improved; also recorded: markedly reduced
same,"MUC5AC, HDAC6, SPDEF, LC3, FOXA2, Ac-tubulin in lung homogenates",WT mice with CS-LI; Neb or IP,alleviated TSE MUC5AC and HDAC6 expression; also recorded: reversed
same,co-localization of MUC5AC and HDAC6 in lung sections,WT mice with CS-LI; Neb or IP,reversed; also recorded: markedly reduced in those treated with CSP7
same,"CAV1, p53 and PAI-1 in lung homogenates",WT mice with CS-LI; via airways or systemically,"marked inhibition of CAV1, p53, and PAI-1"
"WGIDKAFFTTSTVTYKWFRY [CP, scrambled control peptide with the same amino acid composition as CSP, reference compound]",telomerase enzyme activity,[2]; miR-34a^fl/fl mice,little effect
same,H&E alveolar damage / mean linear intercept (MLI),WT mice with CS-LI; Neb and IP,continued to show 479 alveolar damage
same,IHC MUC5AC and HDAC6 staining in lung sections,WT mice with CS-LI; Neb or IP,not evident
same,co-localization of MUC5AC and HDAC6 in lung sections,WT mice with CS-LI; Neb or IP,Increased staining and co-localization
